Source: patent US10307383B2, “Cosmetic composition for preventing or ameliorating hypersensitive skin comprising cedrol or derivatives thereof, or pharmaceutically acceptable salts thereof” (University of Seoul Industry Cooperation Foundation, priority 2017, dated 2019)

What was measured:
Type in all cases: in vivo, Balb/c mouse
[1] = system: psoriasis induced mice (imiquimod); test: Keratosis reduction effect in the psoriasis induced mice (PASI); conditions: for keratosis mean point (PASI): day 7, 100 mg/kg oral once a day, IMQ applied, IMQ alone 3.8
Procedure: (§1) To investigate the delayed effect of cedrol, cedryl acetate, and alpha-cedrene on the development of psoriasis, total 5 groups of mice were prepared (8 mice/group). First, the hair of the entire back of the 8-week-old male Balb/c mouse whose immune system was weakened was removed by using a hair clipper (Kimlaube Hair pen 325,327, Rikei, Korea). In the middle of the shaved back of the mouse, 2 mg of imiquimod (3M Health Care Limited, England) was applied in the area of 2 cm×1.5 cm and also 1,125 mg of imiquimod was applied on the right ear of the mouse every day once a day to induce psoriasis.
(§2) The mice prepared above were divided into the distilled water treated group (IMQ), the cedrol treated group (C), the cedryl acetate treated group (CA), and the alpha-cedrene treated group (CE). At this time, the mice were orally treated with distilled water at the concentration of 200 μl/mouse and cedrol or its derivatives at the concentration of 200 μl/mouse (100 mg/kg). The day when distilled water or the compound administration started was recorded as day 0 and the administration was performed once a day for a week, during which photo-recording was performed every day (FIGS. 2A˜2D). In the meantime, instead of applying imiquimod, 40 mg of vaseline was applied on the back of the control group (CONT) and 22.5 mg of vaseline was applied on the right ear of the control group. And the control group was orally administered with distilled water (200 μl/mouse).
Then, the psoriasis area severity index (PASI) was calculated to confirm the reduction effect of the compounds on keratosis. Keratosis is a symptom of psoriasis. The application of IMQ can induce keratosis.

[2] = system: IL-17A expression in the spleen; test: Inhibition of IL-17A expression in the spleen of the psoriasis induced mice (real-time PCR); conditions: 100 mg/kg oral, IMQ applied; for IL-17A expression value in the spleen (non-treated control group regarded as value 1): real-time PCR, IMQ alone 54.9±5.5
Procedure: as §1, §2
The inhibition of IL-17A expression in the spleen of the psoriasis Induced mice according to the oral administration of cedrol, cedryl acetate, and alpha-cedrene was investigated by real-time PCR (polymerase chain reaction).
Particularly, the spleen was extracted from the psoriasis Induced mice orally administered with cedrol, cedryl acetate, and alpha-cedrene of Example <2-1>. Total RNA was extracted from the spleen by the conventional method. To synthesize cDNA, 2 μg of RNA was loaded in 9 μl of DEPC (RNase free water), indicating the dilution of the concentration. 1 μl of oligo dT was added thereto, followed by reaction at 70° C. for 10 minutes. The sample was treated on ice for 5 minutes, to which 2 μl of 10× reaction buffer, 2 μl of dNTP (10 mM each), 1 μl of M-MLV reverse transcriptase, and 5 μl of DNase free water were added to make the total volume of the reaction mixture 20 μl. The mixture was reacted at 42° C. for 1 hour to synthesize cDNA. The reaction mixture was heated at 72° C. for 10 minutes to remove the reverse transcriptase activity. Then, the reaction mixture was stored at −20° C. Real-time PCR was performed by using AMPIGENE qPCR 1-Step Green Kit (Enzo Life Sciences Inc, USA). […]

[3] = system: psoriasis induced mice (imiquimod); test: Skin thickness of the psoriasis induced mice (hematoxylin and eosin staining); conditions: day 7, 100 mg/kg oral; for skin thickness: IMQ applied, control 1,045, IMQ alone 1,181; for skin thickness, % inhibition: versus IMQ alone
Procedure: as §1, §2
The skin of the psoriasis induced mice orally administered with cedrol, cedryl acetate, and alpha-cedrene of Example <2-1> was stained with hematoxyline and eosine in order to compare the skin thickness.
Particularly, the psoriasis induced mice of Example <2-1> were sacrificed with CO2, from which 1 cm×1 cm portions of the back surface were obtained and placed in PBS. The tissues washed with PBS were loaded in 10% formalin, followed by fixing at room temperature for a day. The fixed tissues were washed with PBS once, followed by dehydration with 25% methanol, 50% methanol, 75% methanol, and 100% methanol for 30 minutes each. Further dehydration of those tissues was additionally performed with 100% ethanol twice for 30 minutes each; with the mixed solution comprising ethanol and xylene (1:1) for 30 minutes, and with 100% xylene twice for 30 minutes each. 4 hours before washing, the modular tissue embedding center (LEICA EG 1150H, Leica, Germany) was turned on and paraplast plus (Sigma Aldrich, Korea) was melted at 60° C., followed by washing the paraffin. The tissues were loaded in a bottle, to which the melted paraffin was poured in, followed by washing in a 60° C. warm chamber twice for one hour each. The xylene-free tissues were placed in the paraffin solution, followed by reaction in the warm chamber for a day. The tissue sections were then placed on a Peel-A-Way embedding mold (Polysciences, Taiwan) and the paraffin solution was filled to half of the mold. The tissue sections were placed on top of the Peel-A-Way embedding mold, followed by fixing. An embedding ring (Thomas Scientific, USA) was placed on the mold, which was treated with the paraffin solution to solidify the mold and the ring at 4° C. for 3 hours, followed by reaction at 4° C. for a day. The embedded tissues can be semipermanently stored at 4° C. The embedded tissues were cut by using a semi-motorized rotary microtome (LEICA RM2145 Microtome, Leica, Germany), which were suspended in a 37° C. water bath to spread the paraffin wrinkles. The straightened wrinkles were collected by using a micro silane coating slide (Muto Pure Chemicals, Japan), which were dried at 37° C. for a day. When the tissues were completely dried, they were treated with xylene twice for 5 minutes each in order to eliminate the paraffin remaining in the tissues. The tissues were further washed with the mixed solution comprising ethanol and xylene (1:1), 100% ethanol, 100% methanol, 75% methanol, and 50% methanol for 2 minutes each to stain the tissues easily. […]

[4] = system: psoriasis induced mice (imiquimod); test: Recovery effect on ear thickness of the psoriasis induced mice after termination of imiquimod (PASI)
Procedure: Imiquimod was applied to the psoriasis induced mice which had developed psoriasis for a week in Example <2-1>. The application was stopped 8 days after the application began. The groups CON and IMQ were treated with distilled water, the group C was treated with cedrol, the group CA was treated with cedryl acetate, the group CE was treated with alpha-cedrene alone at the concentration of 100 mg/kg in 200 μl, every day via oral-administration. Day 8 was the day the imiquimod application was stopped, since then the compounds were administered for 1 week once a day, during which photo-recording was performed (FIGS. 13A˜13D).
The psoriasis area severity index (Psoriasis Area Severity Index, PASI) was given from the point 1 to point 4, based on which the recovery effect on the ear thickness was evaluated.

[5] = day 8 (imiquimod application stopped), 100 mg/kg oral

SMILES	keratosis mean point (PASI) [1] [point]	IL-17A expression value in the spleen (non-treated control group regarded as value 1) [2]	skin thickness [3] [μm]	skin thickness, % inhibition [3] [% inhibition]	ear thickness recovery effect, comparison in words ([4]; 100 mg/kg oral after termination of imiquimod)	PASI reflecting the ear thickness [4, 5] [point]	ear thickness recovered to normal (in words) ([4]; from day 15, 100 mg/kg oral after termination of imiquimod)	PASI reflecting the ear thickness ([4]; day 16, 100 mg/kg oral once a day after termination of imiquimod) [point]	keratosis reduction effect, comparison in words ([1]; 100 mg/kg oral, 7 days)	IL-17A expression inhibition effect in the spleen, comparison in words [2]	PASI reflecting the ear thickness ([4]; day 15, 100 mg/kg oral once a day after termination of imiquimod) [point]
CC(=O)O[C@]1(C)CC[C@@]23C[C@@H]1C(C)(C)[C@@H]2CC[C@H]3C [cedryl acetate, Cedryl acetate]	3.08	7.4±0.7	999	15.3	strongest recovery effect	4.0±0.6	all 8 mice were recovered to normal				
C[C@@H]1CC[C@H]2C(C)(C)[C@H]3C[C@@]12CC[C@@]3(C)O [cedrol, Cedrol]	3.00	1.1±0.1	954	19.2		4.0±0.6		0.7±0.6			
CC1=CC[C@@]23C[C@@H]1C(C)(C)[C@@H]2CC[C@H]3C [alpha-cedrene, Alpha-cedrene]	2.66	31.0±3.1	954	19.2		4.0±0.0			strongest reduction effect	strongest inhibition effect	0.7±0.6
